Where a name gives a salt, the structure may show the parent alone. Read-outs that look alike come from different tables or passages of the source.

17 compounds from patent US4530932A, “4-(1H-indol-3-yl)-α-methyl-piperidine-1-ethanol derivatives” (Roussel Uclaf, priority 1982, dated 1985) can be followed below.

For data set [1], the system named is Rat arteries (arterial contractions, entry of calcium ions into the cells of smooth muscles). In words: In vitro anticalcic activity (inhibition of potassium-depolarized, calcium-induced contractions of isolated rat arteries). Conditions: dose inhibiting by 50% the contractions caused by potassium ions (100 mM), 37° C., read-out: CI50 (the source's name). It is filed as cell-based. The procedure:
Rat arteries decoupled in a spiral were attached to a tension collector and were maintained in tanks containing 2.5 ml of Krebs-sodium bicarbonate buffer (NaCl: 120.8 mM, KCl: 5.9 mM, MgCl2 : 1.2 mM, NaH2 PO4 : 1.2 mM, NaHCO3 : 15.5 mM, glucose: 12.6 mM), at 37° C. covered with a 95%-5% oxygen-carbon dioxide mixture. The preparations were depolarized with a buffered solution containing 100 mM of potassium ions (NaCl: 26.7 mM, KCl: 100 mM, MgCl2 : 1.2 mM, NaH2 PO4 : 1.2 mM, NaHCO3 : 15.5 mM, glucose 12.6 mM).
A volume of 25 μl of calcium chloride was added to the mixture in a manner to obtain a range of increasing concentrations of calcium ions from 0.1 to 3.0 mM and the contractions of the artery were measured to obtain a control. The operation with range of calcium ions was repeated every 15 minutes and the preparation was washed 4 times after each range. When a stable response was obtained, the operation with the range of calcium ions was effected in the presence of varying concentrations of test compounds until a stable response was obtained.
The arterial contractions depend on the entry of calcium ions into the cells of smooth muscles and are provoked by depolarization of smooth muscles by potassium ions and by action of noradrenaline freed by presynapthic level. By recommencing the operation with denerved arteries by the action of 6-hydroxy-dopamine, the specific action due to noradrenaline is suppressed.

Data set [2] deals with cardiac rhythm troubles in guinea pigs. In words: Antiarythmic action (K-strophanthine and adrenaline induced cardiac rhythm troubles). It is filed as in vivo, guinea pig. Conditions: Cavia porcellus, 1 h, oral 10 mg/kg, one hour before K-strophanthine and adrenaline perfusion, read-out: Percentage of protection (lengthening of the time of appearance of cardiac rhythm troubles as compared to controls). The procedure:
Male guinea pigs weighing between 450 and 500 g were tracheotomized while anesthesized by intraperitoneal administration of […] of urethane and were subjected to artifical respiration of 40 to 50 breaths of 5 ml per minute. Needles were subcutaneously implanted to register an electrocardiogram of the guinea pigs for the signal of D II derivation. The test products were orally administered and one hour later, the jugular vein of the guinea pigs were perfused with 0.5 ml per minute of a solution of 150 γ/ml of K-strophanthine and 0.5 ml per minute of a solution of 5 γ/ml of adrenaline and the number of times of the appearance of cardiac rhythm troubles was noted. The results are expressed in percentage of protection with an oral dose of 10 mg/kg of test product that is to say the percentage of lengthening of the time of appearance of cardiac rhythm troubles as compared to the controls.

Data set [3] concerns carotidien arterial pressure in rats. In words: Hypotensive activity (carotidien arterial pressure in anesthesized rats). Conditions: rat, intravenous. The format is in vivo, rat (Wistar). The procedure:
The hypotensive activity was studied on male rats of the Wistar strain weighing about 300 g and anesthesized with 50 mg/kg of nembutal intraveinously. The test products were administered intraveinously by the jugular vein and the carotidien arterial pressure was measured before and after administration of the test compounds. The variations expressed in percentage of arterial pressure after administration with respect to the initial pressure is reported in Table IV.

A further data set deals with mice. As to the kind of experiment: Acute toxicity (DL0, oral). On the set-up: unit not given here. The format is in vivo, mouse.
A further data set deals with α1 adrenergic receptors. In words: Affinity for α1 adrenergic receptors (3H prazosine displacement, rat brain). It is filed as binding. Conditions: relative to phentolamine (ARL=100×(CB/CX)), 25° C., pH 7.7. As to the method: After centrifugation at 30,000 g for 15 minutes at 0° to 4° C., the culot was suspended in 240 ml of buffer Tris HCl 50 mM (pH-7.7) and the suspension was centrifuged at 30,000 g for 20 minutes at 0° to 4° C. The new culot was suspended in 480 ml of buffer Krebs Tris HCl (pH of 7.7-50 mM) and 2 ml of the suspension in the presence of 3H prazosine at a concentration of […] alone and with increasing concentrations of the test compound or with non-radioactive phentolamine at a concentration of 10^-5 M to determine the non-specific fixation was incubated at 25° C. for 30 minutes.
The incubated suspensions were filtered through Whatman FG/C and the filtered were washed with 3 times with 5 ml of buffer Krebs Tris HCl-pH of 7.7 at 0° to 4° C. The radioactivity of the filters was measured by liquid scintillation and the affinity of the test compound for α1 adrenergic receptors was compared relative to phentolamine as the reference compound by the formula
CD=concentration of phentolamine inhibiting by 50% the specific fixation of 3H prazosine.
CX=concentration of test product inhibiting by 50% the specific fixation of 3H prazosine.

[4] abbreviates: 1 min, 1 minute, read-out: % Variation of arterial pressure after administration, 1 minute.
Setting [5] is: 5 min, 5 minutes, read-out: % Variation of arterial pressure after administration, 5 minutes.
[6] abbreviates: 10 min, 10 minutes, read-out: % Variation of arterial pressure after administration, 10 minutes.
The mark [7] stands for this setting: 0.5 h, 30 minutes, read-out: % Variation of arterial pressure after administration, 30 minutes.

With `C=CCOc1ccccc1OCC(O)CN1CCC(c2c[nH]c3ccc(OC)cc23)CC1` (stereo not drawn) [Example 32, 4-(5-methoxy-1H--indol-3-yl)-α -2-(prop-2-enyloxy)-phenoxymethyl]-piperidine-1-ethanol fumarate], the IC50 in data set [1] was determined as 1.9 µM. Moreover, in data set [2], the change in vivo at 10 mg/kg is 20%.
In the case of `OC(COc1ccc(C(F)(F)F)cc1)CN1CCC(c2c[nH]c3ccccc23)CC1` (stereo not drawn) [Example 25, 4-(1H--indol-3-yl)-α-[4-trifluoramethylphenoxymethyl]-piperidine-1-ethanol hydrochloride], the IC50 in data set [1] turned out to be 1.5 µM. The change in vivo at 10 mg/kg in data set [2] was 35%. The change in vivo at 1 mg/kg in data set [3] (setting [4]) was -5%; in data set [3] (setting [5]) it was -14%; in data set [3] (setting [6]), -6%; in data set [3] (setting [7]) it was -14%. Further, the “DL0 (maximum dose which did not cause any deaths after 8 days)” value in the data set with mice is 100.
Take `Oc1cccc(OCC(O)CN2CCC(c3c[nH]c4ccccc34)CC2)c1` (stereo not drawn) [Example 30, 4-(1H--indol-3-yl)-α-[3-hydroxyphenoxymethyl]-piperidine-1-ethanol hydrochloride]: in data set [2], the change in vivo at 10 mg/kg is 86%. For the same compound, the “DL0 (maximum dose which did not cause any deaths after 8 days)” value in the data set on mice is listed as greater than 100.
For the compound `Nc1ccccc1OCC(O)CN1CCC(c2c[nH]c3ccccc23)CC1` (stereo not drawn) [Example 19, 4-(1H--indol-3-yl)-α-[2-amino-phenoxymethyl]-piperidine-1-ethanol fumarate], the change in vivo at 10 mg/kg in data set [2] turned out to be 165%. Besides, the “DL0 (maximum dose which did not cause any deaths after 8 days)” value in the data set with mice was greater than 100.
Consider `O=[N+]([O-])c1ccc(OCC(O)CN2CCC(c3c[nH]c4ccccc34)CC2)cc1` (stereo not drawn) [Example 5, 4-(1H--indol-3-yl)-α-[4-nitrophenoxymethyl]-piperidine-1-ethanol hydrochloride], for which the IC50 in data set [1] stood at 4.5 µM. In addition, the change in vivo at 10 mg/kg in data set [2] was found to be 82%. The “% Arl (relative affinity for α1 adrenergic receptors)” value with α1 adrenergic receptors is on record as 77%. The “DL0 (maximum dose which did not cause any deaths after 8 days)” value with mice was greater than 200.
With `C=CCOc1ccc(OCC(O)CN2CCC(c3c[nH]c4ccccc34)CC2)cc1` (stereo not drawn) [Example 26, 4-(1H--indol-3-yl)-α-[4-prop-2-enyloxy)-phenoxymethyl]-piperidine-1-ethanol hydrochloride], the IC50 in data set [1] was 1.5 µM. Besides, in data set [2], the change in vivo at 10 mg/kg came to 68%. Besides, the “DL0 (maximum dose which did not cause any deaths after 8 days)” value in the data set with mice is greater than 200.
With `COc1cccc(OCC(O)CN2CCC(c3c[nH]c4ccccc34)CC2)c1` (stereo not drawn) [Example 23, 4-(1H--indol-3-yl)-α-[3-methoxyphenoxymethyl]-piperidine-1-ethanol hydrochloride], the IC50 in data set [1] is 2.7 µM. Further, in data set [2], the change in vivo at 10 mg/kg is 73%. Moreover, the change in vivo at 1 mg/kg was -7% in data set [3] (setting [4]), -19% in data set [3] (setting [5]), 14% in data set [3] (setting [6]) and -17% in data set [3] (setting [7]). In addition, the “DL0 (maximum dose which did not cause any deaths after 8 days)” value in the data set with mice is reported as greater than 200.
As to `OC(COc1ccc(Cl)c(Cl)c1)CN1CCC(c2c[nH]c3ccccc23)CC1` (stereo not drawn) [Example 29, 4-(1H--indol-3-yl)-α-[3,4-dichlorophenoxymethyl]-piperidine-1-ethanol hydrochloride], the IC50 in data set [1] was determined as 2.4 µM. Also, the change in vivo at 10 mg/kg in data set [2] is 53%. Also, the “DL0 (maximum dose which did not cause any deaths after 8 days)” value in the data set with mice is greater than 100.
For the compound `C=CCOc1ccccc1OCC(O)CN1CCC(c2cn(C)c3ccccc23)CC1` (stereo not drawn) [Example 31, 4-(1-methyl-1H--indol-3-yl)-α-[2-(prop-2-enyloxy)-phenoxymethyl]-piperidine-1-ethanol fumarate], in data set [1], the IC50 was 3 µM. Also, in data set [2], the change in vivo at 10 mg/kg stood at 49%.
Take `COc1ccc(OCC(O)CN2CCC(c3c[nH]c4ccccc34)CC2)cc1OC` (stereo not drawn) [Example 27, 4-(1H--indol-3-yl)-α-[3,4-dimethoxyphenoxymethyl]-piperidine-1-ethanol hydrochloride]: in data set [2], the change in vivo at 10 mg/kg was determined as 115%. Further, the “DL0 (maximum dose which did not cause any deaths after 8 days)” value in the data set on mice turned out to be 80.
As to `C=CCOc1cccc(OCC(O)CN2CCC(c3c[nH]c4ccccc34)CC2)c1` (stereo not drawn) [Example 28, 4-(1H--indol-3-yl)-α-[3-(prop-2-enyloxy)-phenoxymethyl]-piperidine-1-ethanol hydrochloride], the IC50 in data set [1] was determined as 2.4 µM. For the same compound, the change in vivo at 10 mg/kg in data set [2] stood at 103%. Besides, the change in vivo at 1 mg/kg is -5% in data set [3] (setting [4]), -10% in data set [3] (setting [5]), -6% in data set [3] (setting [6]) and -9% in data set [3] (setting [7]). The “DL0 (maximum dose which did not cause any deaths after 8 days)” value in the data set with mice is given as greater than 100.
Consider `C=CCOc1ccccc1OCC(O)CN1CC=C(c2c[nH]c3ccccc23)CC1` (stereo not drawn) [Example 24, 4-(1H--indol-3-yl)-α-[2-prop-2-enyloxy)-phenoxymethyl]-1,2,3,6,tetrahydropyridine-1-ethanol fumarate], for which, in data set [1], the IC50 was found to be 0.7 µM. Further, the change in vivo at 1 mg/kg in data set [3] (setting [4]) is -10%; in data set [3] (setting [5]), -16%; in data set [3] (setting [6]) it was -11%; in data set [3] (setting [7]), -17%. In addition, the “DL0 (maximum dose which did not cause any deaths after 8 days)” value in the data set on mice is recorded as greater than 200.
Turning to `Cc1cccc(OCC(O)CN2CCC(c3c[nH]c4ccccc34)CC2)c1` (stereo not drawn) [Example 18, 4-(1H--indol-3-yl)-α-[3-methylphenoxymethyl]-piperidine-1-ethanol hydrochloride], the IC50 in data set [1] came to 2 µM. The change in vivo at 10 mg/kg in data set [2] was found to be 23%. Moreover, the “DL0 (maximum dose which did not cause any deaths after 8 days)” value in the data set with mice was greater than 100.
`OC(COc1ccccc1)CN1CCC(c2c[nH]c3ccccc23)CC1` (stereo not drawn) [Example 3, 4-(1H--indol-3-yl)-α-[phenoxymethyl]-piperidine-1-ethanol hydrochloride]: the IC50 in data set [1] was 2.5 µM. The change in vivo at 10 mg/kg in data set [2] was determined as 55%.
Consider `OC(COc1cccc(Cl)c1)CN1CCC(c2c[nH]c3ccccc23)CC1` (stereo not drawn) [Example 22, 4-(1H--indol-3-yl)-α-[3-chloro-phenoxymethyl]-piperidine-1-ethanol hydrochloride], for which the IC50 in data set [1] was found to be 1.8 µM. Further, the “% Arl (relative affinity for α1 adrenergic receptors)” value in the data set with α1 adrenergic receptors came to 70%. In addition, the “DL0 (maximum dose which did not cause any deaths after 8 days)” value in the data set on mice is listed as 80.
Consider `CC(=O)Nc1ccccc1OCC(O)CN1CCC(c2c[nH]c3ccccc23)CC1` (stereo not drawn) [Example 20, 4-(1H--indol-3-yl)-α-[2-acetamidophenoxymethyl]-piperidine-1-ethanol hydrochloride], for which the “% Arl (relative affinity for α1 adrenergic receptors)” value in the data set on α1 adrenergic receptors was 311%.
Take `COc1ccccc1OCC(O)CN1CCC(c2c[nH]c3ccccc23)CC1` (stereo not drawn) [Example 14, 4-(1H--indol-3-yl)-α-[2-methoxyphenoxymethyl]-piperidine-1-ethanol hydrochloride]: the IC50 in data set [1] was found to be 11 µM. In addition, the change in vivo at 10 mg/kg in data set [2] was 83%. Further, the “DL0 (maximum dose which did not cause any deaths after 8 days)” value in the data set on mice is given as greater than 100.
